Experimental data from patent US20220024963A1, “SALT OF TRIPHOSPHATE PHOSPHORAMIDATES OF NUCLEOTIDES AS ANTICANCER COMPOUNDS” (priority 2019, published 2022).
Where a name gives a salt, the structure may show the parent alone.

Tests used:
OCI-AML3 (AML) = assay: cells; format: cell-based
From the text: (§1) The efficacy (evaluated by IC50) of clofarabine and 3 different compounds representing different class of clofarabine ProTides (monophosphate, diphosphate and triphosphate molecules) was compared.
(§2) The tested cancer cell lines were acute lymphoblastic leukaemia (ALL), acute myeloid leukaemia (AML) and lymphoma: CCRF-CEM (ALL), HL60 (AML), KG1 (AML), OCI-AML3 (AML) and RL (lymphoma), grown in suspension, in RPMI-1640 media, supplemented with 10% FBS serum and 1% pen strep, except for KG1 cell line for which FBS was 20%.
(§3) For all experiments, cells were plated on a 96 well plate, at a density of 10,000 cells/well in 50 μL media. Dilutions from stock concentration to working solutions were prepared in media; at twice the required concentration and 50 μL was added per well (this achieving the final concentrations described in results below). Control untreated received 50 μL of plain media. After 66 h 10 μL of resazurin was added per well (dilution 1:10). Cells were then incubated with for up to 6 h. After 72 h treatment, cytotoxicity assay (AlamarBlue™−resazurin dye) was performed to determine cell survival. Plates were scanned with a BioHit800 plate reader and data were analysed with Excel and GraphPad Prism.
(§4) A low IC50 indicates greater potency under these laboratory conditions.
(§5) Clofarabine, A, 5a, 5b, 5c, 5d, 5e and 5f were tested against CCRF-CEM and OCI-AML3 cells. Data is represented as the percentage ofcell survival for each ofthe different concentrations to which cells were exposed, rather than calculating a formal IC50 from only two or three datapoints.

CCRF-CEM (ALL) = assay: cells; format: cell-based
From the text: as §1, §2, §3, §4, §5

RPMI-8226 = assay: In vitro viability assay, CellTiterGlo, 72 h (Example A); format: cell-based, Human; settings: RPMI-8226, CellTiterGlo
Procedure: (§6) A compound of the invention was assayed for cytotoxic activity in an array of different solid tumours and haematological malignancies using the following assay.
(§7) In vitro viability assay was performed to assess the effects of compounds on cell viability in selected cell lines over 72 h using the CellTiterGlo (CTG, Promega-G7573) assay. The tests were performed in duplicates with treatment of compounds at 9 points, 3.16 folds titration in 96 well plates over ˜72 h. The compound starting concentrations were 198 μM. Cell viability assay using CellTiterGlo in 96-well plate were performed. Compound treatment 72 h, standard growth conditions, duplicates. Compounds were dissolved to 40 mM with thawed […]. Compounds were serially diluted at 3.16 fold in thawed DMSO and warmed to 37° C. before being dissolved in media (2 μL+200 μL). After compounds were dissolved in media, media containing compounds were warmed to 37° C. in incubator and then compounds in media were added to cell plates (50 μL+50 μL) in duplicates. The compounds' final concentrations were from 198 μM to 19.8 nM. All compound solubilities were checked and recorded again, then the plates were transferred to CO2 tissue culture incubator immediately and incubated for 3 days. DMSO final concentration is 0.5%.

KG1 (AML) = assay: Cytotoxicity assay (AlamarBlue - resazurin dye), 72 h (Example B); format: cell-based; settings: KG1, 72 h treatment
From the text: as §1, §2, §3, §4

RL (lymphoma) = assay: as above; format: cell-based; settings: 72 h treatment
From the text: as §1, §2, §3, §4

HL60 (AML) = assay: as above; format: cell-based; settings: Homo sapiens, HL-60, HL60, 72 h treatment
From the text: as §1, §2, §3, §4

CCRF-CEM = assay: In vitro viability assay, CellTiterGlo, 72 h (Example A); format: cell-based
Procedure: as §6, §7

MCF-7 = assay: as above; format: cell-based
Procedure: as §6, §7

RL = assay: as above; format: cell-based
Procedure: as §6, §7

HT29 = assay: as above; format: cell-based
Procedure: as §6, §7

HL-60 = assay: as above; format: cell-based; settings: HL-60, CellTiterGlo
Procedure: as §6, §7

MOLT-4 = assay: as above; format: cell-based; settings: MOLT-4, CellTiterGlo
Procedure: as §6, §7

KG-1 = assay: as above; format: cell-based; settings: KG-1, CellTiterGlo
Procedure: as §6, §7

K562 = assay: as above; format: cell-based
Procedure: as §6, §7

HepG2 = assay: as above; format: cell-based
Procedure: as §6, §7

[1] = Homo sapiens, read-out: Ab EC50

C[C@H](NP(=O)(Oc1ccccc1)OP(=O)(O)OP(=O)(O)OC[C@H]1O[C@@H](n2cnc3c(N)nc(Cl)nc32)C(F)[C@H]1O)C(=O)OCc1ccccc1 (stereo partly drawn) [Compound 5a, (2S)-Benzyl 2-(((((((((2R,3R,4S,5R)-5-(6-amino-2-chloro-9H-purin-9-yl)-4-fluoro-3-hydroxytetrahydrofuran-2-yl)methoxy)(hydroxy)phosphoryl)oxy) (hydroxy)phosphoryl)oxy)(phenoxy)phosphoryl)amino)propanoate, di-triethylammonium salt]
IC50 (OCI-AML3 (AML); Homo sapiens, OCI-AML-3, OCI-AML3, 72 h treatment, AlamarBlue): 114 nM | Survival @ 50 nM (OCI-AML3 (AML); OCI-AML3, 50 nM, percentage of cell survival, 72 h): 86% | Survival @ 125 nM (OCI-AML3 (AML); OCI-AML3, 125 nM, percentage of cell survival, 72 h): 51% | Survival @ 25 nM (CCRF-CEM (ALL); 25 nM, percentage of cell survival, 72 h): 81% | Survival @ 50 nM (CCRF-CEM (ALL); 50 nM, percentage of cell survival, 72 h): 100% | Survival @ 125 nM (CCRF-CEM (ALL); 125 nM, percentage of cell survival, 72 h): 13% | IC50 (CCRF-CEM (ALL); Homo sapiens, 72 h treatment, AlamarBlue): 79 nM | EC50 (RPMI-8226; [1]): 20200 nM | Top Inhibit (RPMI-8226): 94% | IC50 (KG1 (AML)): 349 nM | IC50 (RL (lymphoma)): 117 nM | IC50 (HL60 (AML)): 56.2 nM | Top Inhibit (CCRF-CEM): 99% | EC50 (CCRF-CEM; [1]): < 20 nM | EC50 (MCF-7; Homo sapiens, MCF7, MCF-7, CellTiterGlo, read-out: Ab EC50): > 198000 nM | Top Inhibit (MCF-7; MCF-7, CellTiterGlo): 40% | Top Inhibit (RL): 57% | EC50 (RL; [1]): 44600 nM | Top Inhibit (HT29): 64% | EC50 (HT29; Homo sapiens, HT-29, read-out: Ab EC50): 500 nM | Top Inhibit (HL-60): 97% | EC50 (HL-60; [1]): 330 nM | EC50 (MOLT-4; [1]): 40 nM | Top Inhibit (MOLT-4): 86% | EC50 (KG-1; [1]): 310 nM | Top Inhibit (KG-1): 92% | Top Inhibit (K562): 33% | EC50 (K562; [1]): > 198000 nM | Top Inhibit (HepG2): 51% | EC50 (HepG2; [1]): 620 nM
